Tests used:
HIV-1ROJO = test: Anti-HIV PBMC assay (reverse transcriptase activity in supernatant); conditions: for TI (therapeutic index, TC50/IC50): HIV-1ROJO in PBMCs; for IC50: read-out: IC50 (μM) (50% inhibition of virus replication), HIV-1ROJO in fresh human PBMCs, 7 days
[1] = MTS assay to measure cytotoxicity of PBMC; format: cell-based, human; conditions: human, PBMC, PBMCs without virus, read-out: TC50 (μM) (50% cytotoxicity)
Protocol: (§1) PBMC's in 96 well plates that were treated with compounds (without virus) were assayed for cell viability and compound toxicity using an MTS assay (CellTiter 96 Aqueous Non-Radioactivity Cell Proliferation Assay, Promega, Madison; Wis.).

HSP90 (bis-ANS treated) = test: Biotin-geldanamycin competition binding, bis-ANS treated HSP90
PBMC = test: MTS assay to measure cytotoxicity of PBMC; format: cell-based, human; conditions: PBMCs without virus, read-out: TC50 (μM) (50% cytotoxicity)
Protocol: as §1

Her-2 = test: HER2 inhibition assay (Her-2 degradation in MCF7 cells, flow cytometry); format: cell-based; conditions: read-out: HER-2 degradation (IC50 nM)
Protocol: MCF7 cells are seeded in 24 well plates at a density of approximately 30,000 cells/well and allowed to grow for 16 hours in DMEM supplemented with 10% FBS. Drug is then added at a concentration range of 100 uM to 0.01 uM. Cells are incubated for an additional 24. […] 10,000 events were collected per sample. A fluorescence histogram was generated and the mean fluorescence intensity (mfi) of each sample was determined using Cellquest software. The background was defined as the mfi generated from cells incubated with control IgG, and was subtracted from each sample stained with the HER-2/neu Ab. Percent degradation of Her-2 was calculated as follows: % Her-2 degradation=(mfi HER-2 sample)/(mfi HER-2 untreated cells)×100 Water Solubility Studies

[2] = Water solubility studies (salts dissolved in water at room temperature); format: physicochemical; conditions: thermodynamic from solid, HCl salt, read-out: Solubility of the HCl salt in H2O
Protocol: Various salts were prepared as described in the example section and dissolved in water at room temperature.

MDA435 breast tumor = MDA435 breast tumor model; format: in vivo, nude mice; conditions: four courses of therapy; 25 or 30 mg/kg, 40 or 50 mg/kg
Protocol: When the tumors were ˜50 mm3 in size, the animals were randomized into groups of five (10 tumors/group). Therapy commenced under the schedule described for the A549 model. Animals were treated with vehicle (triangles) or one of two doses (25 or 30 mg/kg, squares; 40 or 50 mg/kg, circles) of drugs.

[3] = test system: HSP90 (cell lysate, high affinity); test: Biotin-geldanamycin competition binding, HSP90 in cell lysate (high affinity); conditions: for ratio: rHsp90 (low affinity) IC50 over lysate (high affinity) IC50; for IC50: read-out: Lysate (high affinity) IC50 nM, inhibition of biotin-GM binding to HSP90 in cell lysate, 4° C.
rHsp90 (low affinity) = test: Biotin-geldanamycin competition binding, purified native HSP90 protein (rHsp90, low affinity); conditions: read-out: rHsp90 (low affinity) IC50 nM; inhibition of biotin-GM binding to purified HSP90, 4° C.
A549 xenografts = test: A549 xenograft growth in vivo; conditions: IP injections, three consecutive days each week for four weeks
Text: Similar efficacy has been seen with five second-generation ansamycins, some of which are being developed as back-ups to Compound#237.

[4] = test system: primary human breast tumor xenograft; test: Transplantable primary human breast tumor xenograft model; format: in vivo; conditions: 30 mg/kg intraperitoneally
SKOV-3 ovarian xenograft = SKOV-3 ovarian xenograft model; format: in vivo; conditions: tumors 200 mm3 before commencement of treatment
Text: Compounds have also been tested in HER-2 over-expressing tumor models such as BT474 breast and SKOV-3 ovarian carcinoma A therapy experiment with SKOV-3 is shown in FIG. 6. The treatment, doses, and schedule were the same as used in the A549 and MDA435 experiments. In this case, the tumors were allowed to become established and grow to a relatively large size (200 mm3) before commencement of treatment.

In the case of `C=CCO/N=C1/[C@@H](OC)C[C@H](C)CC2=C(NC(=O)c3ccccc3)C(=O)C=C(NC(=O)/C(C)=C/C=C\[C@H](OC)[C@@H](OC(N)=O)/C(C)=C/[C@@H]1C)C2=O` (stereo in doubt) [Compound #1011], the “TI (therapeutic index, TC50/IC50)” value (HIV-1ROJO) is reported as 14.5, the IC50 (HIV-1ROJO) is reported as 0.2 µM and the CC50 [1] is reported as 2.9 µM. It also gave an IC50 (HSP90 (bis-ANS treated)) of 5 µM.
For `Cc1cn([C@H]2C[C@H](N=[N+]=[N-])[C@@H](CO)O2)c(=O)[nH]c1=O` [AZT Control, reference compound], the “TI (therapeutic index, TC50/IC50)” value (HIV-1ROJO) was >197.6, the IC50 (HIV-1ROJO) was 0.0051 µM and the CC50 (PBMC) was > 1 µM.
`C=CCNC1=C2C[C@@H](C)C[C@H](OC)[C@H](O)[C@@H](C)/C=C(\C)[C@H](OC(N)=O)[C@@H](OC)/C=C\C=C(/C)C(=O)NC(=CC1=O)C2=O` [Compound 17-AAG, 17-allyl amino geldanamycin, reference compound] gave an IC50 (HIV-1ROJO) of 0.38 µM, a CC50 [1] of 2.02 µM and an IC50 (Her-2) of 5 nM. For the same molecule, the solubility [2] was < 0.01 mg/mL.
For `COC1C=CC=C(C)C(=O)NC2=CC(=O)C(NCCCN(C)CCCNC3=C4CC(C)CC(OC)C(O)C(C)C=C(C)C(OC(N)=O)C(OC)C=CC=C(C)C(=O)NC(=CC3=O)C4=O)=C(CC(C)CC(OC)C(O)C(C)C=C(C)C1OC(N)=O)C2=O` (stereo not shown) [Compound #208], the “TI (therapeutic index, TC50/IC50)” value (HIV-1ROJO) was 38.6, the IC50 (HIV-1ROJO) was 0.007 µM and the melting point was 153 °C (dec.). The CC50 [1] was 0.27 µM, the IC50 (Her-2) was 11 nM and the solubility [2] was ≥ 20 mg/mL.
For `COC1C=CC=C(C)C(=O)NC2=CC(=O)C(NCCCNCCCNC3=C4CC(C)CC(OC)C(O)C(C)C=C(C)C(OC(N)=O)C(OC)C=CC=C(C)C(=O)NC(=CC3=O)C4=O)=C(CC(C)CC(OC)C(O)C(C)C=C(C)C1OC(N)=O)C2=O` (stereo not shown) [Compound #237], the “inhibition of tumor growth in MDA435” value (MDA435 breast tumor) was 70 to 100%, the ratio [3] was 67 and the IC50 [3] was 30 nM. The IC50 (rHsp90 (low affinity)) was 2000 nM, the “growth of A549 xenografts” value (A549 xenografts) was “blocks the growth” and the melting point was 165 °C. The IC50 (Her-2) was 20 nM, the solubility [2] was ≥ 13 mg/mL and the “tumor growth inhibition in primary human breast tumor xenograft” value [4] was 86%. For the same molecule, the “tumor growth in SKOV-3 xenograft” value (SKOV-3 ovarian xenograft) was “suppressed tumor growth almost completely”.
Molecule `COC1/C=C\C=C(/C)C(=O)NC2=CC(=O)C(NC(=O)c3ccccn3)=C(CC(C)CC(OC)C(O)C(C)/C=C(\C)C1OC(N)=O)C2=O` (stereo not shown) [Compound #529, 17-picolinoyl-aminogeldanamycin] has a ratio [3] of 67, an IC50 [3] of 15 nM and an IC50 (rHsp90 (low affinity)) of 1000 nM. For the same molecule, the melting point was 195 to 197 °C.
In the case of `COC1/C=C\C=C(/C)C(=O)NC2=CC(=O)C(NC(=O)c3ccncc3)=C(CC(C)CC(OC)C(O)C(C)/C=C(\C)C1OC(N)=O)C2=O` (stereo not shown) [Compound #530, 17-isonicotinoyl-aminogeldanamycin], the melting point is reported as 167 to 169 °C, the IC50 (Her-2) is reported as 100 nM and the solubility [2] is reported as > 2 mg/mL.
With `COC1/C=C\C=C(/C)C(=O)NC2=CC(=O)C(NC(=O)c3ccccc3)=C(CC(C)CC(OC)C(O)C(C)/C=C(\C)C1OC(N)=O)C2=O` (stereo not shown) [Compound #563, 17-(benzoyl)-aminogeldanamycin] the ratio [3] was 90, the IC50 [3] was 50 nM and the IC50 (rHsp90 (low affinity)) was 4500 nM. For the same molecule, the melting point was 218 to 220 °C and the “tumor growth in SKOV-3 xenograft” value (SKOV-3 ovarian xenograft) was “suppressed tumor growth almost completely”.
For `CO[C@H]1/C=C\C=C(/C)C(=O)NC2=CC(=O)C(NC(=O)c3ccc(CN(C)C)cc3)=C(C[C@@H](C)C[C@H](OC)[C@H](O)[C@@H](C)/C=C(\C)[C@@H]1OC(N)=O)C2=O` [Compound #687, 17-(4-dimethylaminomethyl-benzoyl)-aminogeldanamycin], the ratio [3] was 250, the IC50 [3] was 8 nM and the IC50 (rHsp90 (low affinity)) was 2000 nM. It also gave a melting point of 203 to 206 °C.
In the case of `CO[C@H]1/C=C\C=C(/C)C(=O)NC2=CC(=O)C(NC(=O)OCc3ccc(OC(C)=O)cc3)=C(C[C@@H](C)C[C@H](OC)[C@H](O)[C@@H](C)/C=C(\C)[C@@H]1OC(N)=O)C2=O` [Compound #709], the ratio [3] is reported as 167, the IC50 [3] is reported as 9 nM and the IC50 (rHsp90 (low affinity)) is reported as 1500 nM.
In the case of `CO[C@H]1/C=C\C=C(/C)C(=O)NC2=CC(=O)C(NC(=O)OCC(C)C)=C(C[C@@H](C)C[C@H](OC)[C@H](O)[C@@H](C)/C=C(\C)[C@@H]1OC(N)=O)C2=O` [Compound #749], the “TI (therapeutic index, TC50/IC50)” value (HIV-1ROJO) is reported as 56.0, the IC50 (HIV-1ROJO) is reported as 0.02 µM and the CC50 [1] is reported as 1.12 µM.
